The target of the experiment is T1, CD94/NKG2A (Homo sapiens, UniProt P26715+Q13241).
T1 construct: The C-terminus of human NKG2A or NKG2C ectodomain was connected via a GGSGGS linker to human CD94 ectodomain; AviTag biotinylation tag (C); poly-histidine tag (C); made in house; host or cells: baculovirus, High Five (Hi5) insect cells
The experiment is described as follows: CD94/NKG2A tetramer staining of yeast-displayed peptide-HLA-E. In kind it is binding. Particulars: yeast-displayed single chain trimer, 500 nM tetramer, 2 h, 4 °C, flow cytometry. The source says:
To study the diversity of the HLA-E peptide repertoire recognized by CD94/NKG2x, we adapted an MHC yeast surface display system previously used to study class Ia MHC-restricted TCR recognition[25],[26]. In this system, peptide, Beta-2-microglobulin (β2M), and MHC heavy chain are covalently linked to each other and fused to the N-terminus of the yeast mating factor protein Aga2p (Fig. 1A, B). The HLA-E single chain trimer construct expressed well on the yeast surface, as confirmed via staining for an included hemagglutinin (HA) epitope tag and via an anti-HLA-E antibody (Fig. 1C). Since epitope tag staining assesses construct expression rather than protein fold[27]–[29], we tested peptide-HLA-E (pHLA-E) fold by staining with its cognate NK receptors. […] (Supplemental Fig. 1A, E–G), though both receptors were able to bind and enable selective enrichment of […]/HLA-E-expressing yeast using avid streptavidin-coated beads (Supplemental Fig. 1B–D).
To stain peptide-HLA-E (pHLA-E) with CD94/NKG2x tetramers, each biotinylated receptor was mixed with streptavidin coupled to AlexaFluor647 (SAV-647, made in-house) at a 5:1 ratio and incubated for 5 min on ice. Yeast were stained with 500 nM tetramer for 2 h at 4 °C in the dark with rotation. […]

T1 sequence (Q13241 whole entry, looked up, the tested form may be a part): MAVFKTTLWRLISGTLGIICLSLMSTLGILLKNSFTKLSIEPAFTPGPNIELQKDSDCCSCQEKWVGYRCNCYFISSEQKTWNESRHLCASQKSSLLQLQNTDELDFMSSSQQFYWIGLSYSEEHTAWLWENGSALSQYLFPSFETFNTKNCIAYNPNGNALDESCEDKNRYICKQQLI
T1 sequence (P26715 whole entry, looked up, the tested form may be a part): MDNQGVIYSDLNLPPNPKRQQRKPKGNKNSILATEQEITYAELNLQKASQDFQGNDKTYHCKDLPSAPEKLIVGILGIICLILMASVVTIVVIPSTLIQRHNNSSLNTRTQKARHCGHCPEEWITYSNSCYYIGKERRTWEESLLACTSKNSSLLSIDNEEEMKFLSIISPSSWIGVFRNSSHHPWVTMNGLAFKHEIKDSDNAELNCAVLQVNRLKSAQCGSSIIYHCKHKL

VMAPRTLFL [positive control]: the CD94/NKG2A tetramer staining result was “positively stained cells”.

The values are drawn from article PMC10412585 (Nature Communications, 2023).
